Measurements reported in US8729014B2, “Specific HCV NS3 protease inhibitors” (RFS Pharma, LLC, priority 2010, dated 2014).

Experiments:
Chymase = Chymase (Homo sapiens, UniProt P23946); assay: Inhibition of human proteases: chymase; assay type: biochemical
[1] = test system: Hepatitis C Virus NS3/4A protease A156S; assay: biochemical; settings: A156S vs Wild Type

Chymase, sequence (P23946 22-247): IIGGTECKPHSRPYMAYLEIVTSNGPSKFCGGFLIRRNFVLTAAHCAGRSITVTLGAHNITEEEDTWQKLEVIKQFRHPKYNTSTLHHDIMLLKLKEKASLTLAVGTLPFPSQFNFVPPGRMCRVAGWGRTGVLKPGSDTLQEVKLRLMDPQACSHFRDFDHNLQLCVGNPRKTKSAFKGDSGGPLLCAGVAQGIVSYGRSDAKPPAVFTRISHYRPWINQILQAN

Q: Which IC50 (Chymase) does the source give for C=C[C@@H]1C[C@]1(NC(=O)[C@@H]1C[C@@H](OC(=O)N2Cc3cccc(F)c3C2)CN1C(=O)[C@@H](NC(=O)OC(C)(C)C)C(C)(C)C)C(=O)NS(=O)(=O)C1CC1 [Compound 10] here?
A: > 100 µM

Q: What about the “Fold Increase of EC50” value [1] of the same compound?
A: 1.6

Q: And the “Fold Increase of EC90” value [1]?
A: 2.9
